For three compounds, Plasma stability and Hydrolytic stability results are on record in patent US20090022664A1, “Radiolabelling via fluorination of aziridines” (priority 2007, published 2009).

The nature of series [1]: Plasma stability of the β-fluoro amines. Type of series: in vitro ADME. Particulars: in solution with Human Plasma; aliquots incubated for different time periods. As to the method:
675 μl EtOH were added to the reactive-vial and then 5 aliquots of 70 μl of the Plasma solution were incubated for different time periods.

Series [2] can be described thus: Hydrolytic stability of the β-fluoro amines. Conditions: under neutral and basic conditions (FIG. 2). The format is physicochemical. The text has this: The β-fluoro amino acid derivative 11ab-18F is quite stable under neutral and basic conditions (FIG. 2).

Regarding `COc1ccc(S(=O)(=O)NC(C[18F])C(=O)NCc2ccccc2)cc1OC` (stereo not drawn) [11ac-18F, 3-[^18F]Fluoro-N-benzyl-2-(3,4-dimethoxyphenylsulphon-amido)-propanamide], in series [1], the Plasma stability entry was “stable”.

Consider `CC(C)c1cc(C(C)C)c(S(=O)(=O)NC2CN(C(=O)CCC(=O)NCc3ccccc3)CC2[18F])c(C(C)C)c1` (stereo not drawn) [35aa-18F, N-Benzyl-4-[3-[^18F]fluoro-4-(2,4,6-triisopropyl-benzene-sulfonylamino)-pyrrolidin-1-yl]-4-oxo-butyramide], for which, in series [1], the Plasma stability result is recorded as “stable”.

For the compound `CC(C)c1cc(C(C)C)c(S(=O)(=O)NC(C[18F])C(=O)NCc2ccccc2)c(C(C)C)c1` (stereo not drawn) [11ab-18F, 3-[^18F]Fluoro-N-benzyl-2-(2,4,6-triisopropylphenylsulphon-amido)-propanamide], the Hydrolytic stability result in series [2] is recorded as “quite stable”.
